Data as given in publication PMC5510229, “BCAT1 controls metabolic reprogramming in activated human macrophages and is associated with inflammatory diseases” (Nature Communications, 2017).

System: human monocyte-derived macrophages (hMDMs)
Assay: Itaconate and citrate measurement by GC/MS in hMDMs
Format: cell-based
Protocol: Figure 1 BCAT1 expression and inhibition in human macrophages. […] (b) Chemical structure of ERG240 and leucine. (c) Enzymatic activity of recombinant human BCAT1 and BCAT2 in presence of ERG240. (d) Relative expression of IRG1, HIF1A and IL1B measured by qRT-PCR in control, ERG240-treated (20 mM, 3 h), LPS treated (100 ng ml^−1, 3 h), and LPS+ERG240 treated (LPS, 100 ng ml^−1; ERG240, 20 mM for 3 h) hMDMs. ns, non-significant. All expression values are normalized to those obtained for HPRT gene expression. n=3 healthy donor hMDMs were used in each group. […]
For itaconate, cells pellets containing 1.5 × 10^6 hMDMs were quenched with 400 μl of methanol, previously chilled at −20 °C. […] After a brief centrifugation, derivatized metabolites were transferred into clean GC/MS vials and analysed for the presence of itaconic acid (itaconate) using a 7890A GC System (Agilent Technologies) equipped with an Agilent J&W DB-5ms column (30 m, 0.25 mm, 0.25 μm), connected to an 5975C Triple-Axis MS Detector (Agilent Technologies) and outfitted with an autosampler. […] The amount of itaconate present in the sample was determined after peak integration. […] The GC/MS was performed by Biocrates (BIOCRATES Life Sciences AG, Innsbruck, Austria) and the citrate quantification was performed using their commercially available Kit plates, according to the manufacturer’s instructions. […]

CC(=O)C(C)CCC(=O)O (centres unmarked) [ERG240]
citrate levels by GC/MS (LPS 3 h 100 ng/ml + ERG240 vs LPS): further significantly increased | itaconate levels measured by GC/MS (LPS 8 h 100 ng ml^−1, ERG240 20 mM): decreased itaconate levels
